Measured values: US11986532B2 (Arvinas Operations, Inc., priority 2021, dated 2024)
Read-outs that look alike come from different tables or passages of the source.

Target: T1, BCL6 (Homo sapiens, UniProt P41182)
T1 construct: endogenous in cells; host or cells: T47D breast cancer epithelial cells
Test: Immunofluorescence protocol for high content imaging of BCL6 (degradation) in T47D cells, 3 days compound treatment
Assay type: cell-based
Conditions: for DC50: read-out: Mean DC50 (nM)* category; for Dmax: read-out: Mean Dmax (%)** category
Summary of the method: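 T47D, RPMI1640/10% FBS; cpd 11-pt 3-fold, top 0.1 or 1 μM final; 3 d, 37° C. Fix 4% PFA, perm 0.1% Triton, block 3% BSA; anti-BCL6 1:300 o/n 4° C; Alexa-488 2°, CellMask-647, Hoechst. Imaged 10×, 4 fields/well.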

[1] = T47D cells, 3 days compound treatment

| DC50 [1] | Dmax [1] | Compound | Dmax (T47D) | DC50 |
| --- | --- | --- | --- | --- |
| < 10 nM | 50 to 70% | CNC(=O)COc1cc2cc(Nc3nc(N4CCN(CC5CCN(c6ccc(OC)c7c6CN(C6CCC(=O)NC6=O)C7=O)CC5)CC4)ncc3Cl)ccc2n(C(C)C)c1=O (stereo not drawn) [Compound 121, 2-{[6-({5-chloro-2-[4-({1-[2-(2,6-dioxopiperidin-3-yl)-7-methoxy-1-oxo-2,3-dihydro-1H-isoindol-4-yl]piperidin-4-yl}methyl)piperazin-1-yl]pyrimidin-4-yl}amino)-2-oxo-1-(propan-2-yl)-1,2-dihydroquinolin-3-yl]oxy}-N-methylacetamide] | – | – |
| < 10 nM | 50 to 70% | CNC(=O)COc1cc2cc(Nc3nc(N4CCC(F)(CN5CCC6(CC5)CN(c5ccc7c(c5)CN(C5CCC(=O)NC5=O)C7=O)C6)CC4)ncc3Cl)ccc2n(C(C)C)c1=O (stereo not drawn) [Compound 51, 2-{[6-({5-chloro-2-[4-({2-[2-(2,6-dioxopiperidin-3-yl)-1-oxo-2,3-dihydro-1H-isoindol-5-yl]-2,7-diazaspiro[3.5]nonan-7-yl}methyl)-4-fluoropiperidin-1-yl]pyrimidin-4-yl}amino)-2-oxo-1-(propan-2-yl)-1,2-dihydroquinolin-3-yl]oxy}-N-methylacetamide] | – | – |
| 10 to 50 nM | 50 to 70% | CNC(=O)COc1cc2cc(Nc3nc(N4CCN(C[C@H]5C[C@@H](N6CCC(c7ccc8c(c7)C(=O)N(C7CCC(=O)NC7=O)C8=O)CC6)C5)CC4)ncc3Cl)ccc2n(C(C)C)c1=O (stereo partly drawn) [Compound 40, 2-[(6-{[5-chloro-2-(4-{[(1s,3s)-3-{4-[2-(2,6-dioxopiperidin-3-yl)-1,3-dioxo-2,3-dihydro-1H-isoindol-5-yl]piperidin-1-yl}cyclobutyl]methyl}piperazin-1-yl)pyrimidin-4-yl]amino}-2-oxo-1-(propan-2-yl)-1,2-dihydroquinolin-3-yl)oxy]-N-methylacetamide] | – | – |
| < 10 nM | – | CNC(=O)COc1cc2cc(Nc3nc(N4CCOC5(CN(CCC6CCN(c7ccc8c(c7)C(=O)N(C7CCC(=O)NC7=O)C8=O)CC6)C5)C4)ncc3Cl)ccc2n(C(C)C)c1=O (stereo not drawn) [Compound 145, 2-{[6-({5-chloro-2-[2-(2-{1-[2-(2,6-dioxopiperidin-3-yl)-1,3-dioxo-2,3-dihydro-1H-isoindol-5-yl]piperidin-4-yl}ethyl)-5-oxa-2,8-diazaspiro[3.5]nonan-8-yl]pyrimidin-4-yl}amino)-2-oxo-1-(propan-2-yl)-1,2-dihydroquinolin-3-yl]oxy}-N-methylacetamide] | – | – |
| – | – | CNC(=O)COc1cc2cc(Nc3nc(N4CCN(CC5CCC6(CC5)CN(c5cccc7c5CN(C5CCC(=O)NC5=O)C7=O)C6)CC4)ncc3Cl)ccc2n(C(C)C)c1=O (stereo not drawn) [Compound 313, 2-{[6-({5-chloro-2-[4-({2-[2-(2,6-dioxopiperidin-3-yl)-1-oxo-2,3-dihydro-1H-isoindol-4-yl]-2-azaspiro[3.5]nonan-7-yl}methyl)piperazin-1-yl]pyrimidin-4-yl}amino)-2-oxo-1-(propan-2-yl)-1,2-dihydroquinolin-3-yl]oxy}-N-methylacetamide] | 50 to 70% | < 10 nM |
| – | – | CNC(=O)COc1cc2cc(Nc3nc(N4CCC(O[C@H]5C[C@H](N6CCC(c7ccc8c(c7F)CN([C@@H]7CCC(=O)NC7=O)C8=O)CC6)C5)CC4)ncc3Cl)ccc2n(C(C)C)c1=O [Compound 384, 2-({6-[(5-chloro-2-{4-[(1r,3r)-3-(4-{2-[(3R)-2,6-dioxopiperidin-3-yl]-4-fluoro-1-oxo-2,3-dihydro-1H-isoindol-5-yl}piperidin-1-yl)cyclobutoxy]piperidin-1-yl}pyrimidin-4-yl)amino]-2-oxo-1-(propan-2-yl)-1,2-dihydroquinolin-3-yl}oxy)-N-methylacetamide] | 50 to 70% | < 10 nM |
| – | – | CNC(=O)COc1cc2cc(Nc3nc(N4CCC(CN5CCN(c6ccc7c(c6C)C(=O)N(C6CCC(=O)NC6=O)C7=O)CC5)CC4)ncc3Cl)ccc2n(C(C)C)c1=O (stereo not drawn) [Compound 403, 2-{[6-({5-chloro-2-[4-({4-[2-(2,6-dioxopiperidin-3-yl)-4-methyl-1,3-dioxo-2,3-dihydro-1H-isoindol-5-yl]piperazin-1-yl}methyl)piperidin-1-yl]pyrimidin-4-yl}amino)-2-oxo-1-(propan-2-yl)-1,2-dihydroquinolin-3-yl]oxy}-N-methylacetamide] | 50 to 70% | < 10 nM |
| – | – | CNC(=O)COc1cc2cc(Nc3nc(N4CCC(OC5CCC6(CC5)CN(c5cc(OC)cc7c5CN(C5CCC(=O)NC5=O)C7=O)C6)CC4)ncc3Cl)ccc2n(C(C)C)c1=O (stereo not drawn) [Compound 301, 2-{[6-({5-chloro-2-[4-({2-[2-(2,6-dioxopiperidin-3-yl)-6-methoxy-1-oxo-2,3-dihydro-1H-isoindol-4-yl]-2-azaspiro[3.5]nonan-7-yl}oxy)piperidin-1-yl]pyrimidin-4-yl}amino)-2-oxo-1-(propan-2-yl)-1,2-dihydroquinolin-3-yl]oxy}-N-methylacetamide] | 50 to 70% | < 10 nM |
| – | – | CNC(=O)COc1cc2cc(Nc3nc(N4CCC(O[C@H]5C[C@H](N6CCCC7(CCN(c8ccc9c(c8)CN(C8CCC(=O)NC8=O)C9=O)C7)C6)C5)CC4)ncc3Cl)ccc2n(C(C)C)c1=O (stereo partly drawn) [Compound 356, 2-({6-[(5-chloro-2-{4-[(1r,3r)-3-{2-[2-(2,6-dioxopiperidin-3-yl)-1-oxo-2,3-dihydro-1H-isoindol-5-yl]-2,7-diazaspiro [4.5]decan-7-yl}cyclobutoxy]piperidin-1-yl}pyrimidin-4-yl)amino]-2-oxo-1-(propan-2-yl)-1,2-dihydroquinolin-3-yl}oxy)-N-methylacetamide] | ≥ 70% | < 10 nM |
| < 10 nM | – | CNC(=O)COc1cc2cc(Nc3nc(C)ncc3Cl)ccc2n(CCOc2ccc3c(c2)C(=O)N(C2CCC(=O)NC2=O)C3=O)c1=O (stereo not drawn) [Compound 147, 2-({6-[(5-chloro-2-methylpyrimidin-4-yl)amino]-1-(2-{[2-(2,6-dioxopiperidin-3-yl)-1,3-dioxo-2,3-dihydro-1H-isoindol-5-yl]oxy}ethyl)-2-oxo-1,2-dihydroquinolin-3-yl}oxy)-N-methylacetamide] | – | – |
| – | – | CNC(=O)COc1cc2cc(Nc3nc(N4CCC(C(C)(C)N5CCC6(CC5)CN(c5cc(OC)cc7c5CN(C5CCC(=O)NC5=O)C7=O)C6)CC4)ncc3Cl)ccc2n(C(C)C)c1=O (stereo not drawn) [Compound 328, 2-{[6-({5-chloro-2-[4-(2-{2-[2-(2,6-dioxopiperidin-3-yl)-6-methoxy-1-oxo-2,3-dihydro-1H-isoindol-4-yl]-2,7-diazaspiro[3.5]nonan-7-yl}propan-2-yl)piperidin-1-yl]pyrimidin-4-yl}amino)-2-oxo-1-(propan-2-yl)-1,2-dihydroquinolin-3-yl]oxy}-N-methylacetamide] | 50 to 70% | < 10 nM |
| – | – | CNC(=O)COc1cc2cc(Nc3nc(N4CCC(O[C@H]5C[C@H](N6CC7(CCN(c8ccc9c(c8C)C(=O)N(C8CCC(=O)NC8=O)C9=O)CC7)C6)C5)CC4)ncc3Cl)ccc2n(C(C)C)c1=O (stereo partly drawn) [Compound 418, 2-({6-[(5-chloro-2-{4-[(1r,3r)-3-{7-[2-(2,6-dioxopiperidin-3-yl)-4-methyl-1,3-dioxo-2,3-dihydro-1H-isoindol-5-yl]-2,7-diazaspiro[3.5]nonan-2-yl}cyclobutoxy]piperidin-1-yl}pyrimidin-4-yl)amino]-2-oxo-1-(propan-2-yl)-1,2-dihydroquinolin-3-yl}oxy)-N-methylacetamide] | ≥ 70% | < 10 nM |
| – | – | CNC(=O)COc1cc2cc(Nc3nc(N4CCC(O[C@H]5C[C@H](N6CC7(CCN7c7ccc8c(c7)CN(C7CCC(=O)NC7=O)C8=O)C6)C5)CC4)ncc3Cl)ccc2n(C(C)C)c1=O (stereo partly drawn) [Compound 309, 2-({6-[(5-chloro-2-{4-[(1r,3r)-3-{1-[2-(2,6-dioxopiperidin-3-yl)-1-oxo-2,3-dihydro-1H-isoindol-5-yl]-1,6-diazaspiro[3.3]heptan-6-yl}cyclobutoxy]piperidin-1-yl}pyrimidin-4-yl)amino]-2-oxo-1-(propan-2-yl)-1,2-dihydroquinolin-3-yl}oxy)-N-methylacetamide] | 50 to 70% | < 10 nM |
| 10 to 50 nM | 50 to 70% | CNC(=O)COc1cc2cc(Nc3nc(N4CCC5(CCN(CC6(F)CCN(c7cccc8c7C(=O)N(C7CCC(=O)NC7=O)C8=O)CC6)CC5)CC4)ncc3Cl)ccc2n(C(C)C)c1=O (stereo not drawn) [Compound 63, 2-{[6-({5-chloro-2-[9-({1-[2-(2,6-dioxopiperidin-3-yl)-1,3-dioxo-2,3-dihydro-1H-isoindol-4-yl]-4-fluoropiperidin-4-yl}methyl)-3,9-diazaspiro[5.5]undecan-3-yl]pyrimidin-4-yl}amino)-2-oxo-1-(propan-2-yl)-1,2-dihydroquinolin-3-yl]oxy}-N-methylacetamide] | – | – |
| – | – | CNC(=O)COc1cc2cc(Nc3nc(N4CCC(O[C@H]5C[C@H](N6[C@@H](C)CN(c7ccc8c(c7)C(=O)N(C7CCC(=O)NC7=O)C8=O)C[C@@H]6C)C5)CC4)ncc3Cl)ccc2n(C(C)C)c1=O (stereo partly drawn) [Compound 253, 2-({6-[(5-chloro-2-{4-[(1r,3r)-3-[(2S,6S)-4-[2-(2,6-dioxopiperidin-3-yl)-1,3-dioxo-2,3-dihydro-1H-isoindol-5-yl]-2,6-dimethylpiperazin-1-yl]cyclobutoxy]piperidin-1-yl}pyrimidin-4-yl)amino]-2-oxo-1-(propan-2-yl)-1,2-dihydroquinolin-3-yl}oxy)-N-methylacetamide] | ≥ 70% | 10 to 50 nM |

| Compound | DC50 [1] | Dmax [1] | Dmax (T47D) | DC50 |
| --- | --- | --- | --- | --- |
| CNC(=O)COc1cc2cc(Nc3nc(N4CCC(O[C@H]5C[C@H](N6CCC(c7ccc8c(c7F)CN(C7CCC(=O)NC7=O)C8=O)CC6)C5)CC4)ncc3Cl)ccc2n(C2CCC2)c1=O (stereo partly drawn) [Compound 190, 2-({6-[(5-chloro-2-{4-[(1r,3r)-3-{4-[2-(2,6-dioxopiperidin-3-yl)-4-fluoro-1-oxo-2,3-dihydro-1H-isoindol-5-yl]piperidin-1-yl}cyclobutoxy]piperidin-1-yl}pyrimidin-4-yl)amino]-1-cyclobutyl-2-oxo-1,2-dihydroquinolin-3-yl}oxy)-N-methylacetamide] | < 10 nM | ≥ 70% | – | – |
